According to US9309242B2, “Substituted pyrido[2,3-b]pyrazines as FGFR kinase inhibitors” (priority 2011, dated 2016):

What was measured:
FGFR1 (h) = FGFR1 (h) (Homo sapiens, UniProt P11362); experiment: FGFR1 (enzymatic assay), TR-FRET; assay type: biochemical; conditions: read-out: FGFR 1 pIC50 (converted)
[1] = target: T1, Ba/F3-KDR-transfected cells (Homo sapiens, UniProt P35968); experiment: Ba/F3-KDR (minus IL3) cellular proliferation assay, Alamar Blue; assay type: cell-based
T1 construct: BAF3-KDR (MIN IL3) pIC50; other: minus IL3
How it was run: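 Read-out: resazurin-based Alamar Blue fluorescence (ex. 540, em. 590 nm) after 4 h. Before that, cells were incubated with compound for 24 h at 37° C. The counterscreen ran identically but with IL3 supplemented.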

[2] = target: Ba/F3-FGFR4-transfected cells (Homo sapiens, UniProt P22455); experiment: Ba/F3-FGFR4 cellular proliferation assay, Alamar Blue; assay type: cell-based
How it was run: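 Fluorescence read-out (ex. 540 nm, em. 590 nm) of resazurin-based Alamar Blue after 4 h, following 24 h compound exposure of Ba/F3-FGFR4-transfected cells (20000/well) at 37° C, 5% CO2.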

Ba/F3-FGFR4-transfected cells, sequence (P22455 whole entry, change not shown): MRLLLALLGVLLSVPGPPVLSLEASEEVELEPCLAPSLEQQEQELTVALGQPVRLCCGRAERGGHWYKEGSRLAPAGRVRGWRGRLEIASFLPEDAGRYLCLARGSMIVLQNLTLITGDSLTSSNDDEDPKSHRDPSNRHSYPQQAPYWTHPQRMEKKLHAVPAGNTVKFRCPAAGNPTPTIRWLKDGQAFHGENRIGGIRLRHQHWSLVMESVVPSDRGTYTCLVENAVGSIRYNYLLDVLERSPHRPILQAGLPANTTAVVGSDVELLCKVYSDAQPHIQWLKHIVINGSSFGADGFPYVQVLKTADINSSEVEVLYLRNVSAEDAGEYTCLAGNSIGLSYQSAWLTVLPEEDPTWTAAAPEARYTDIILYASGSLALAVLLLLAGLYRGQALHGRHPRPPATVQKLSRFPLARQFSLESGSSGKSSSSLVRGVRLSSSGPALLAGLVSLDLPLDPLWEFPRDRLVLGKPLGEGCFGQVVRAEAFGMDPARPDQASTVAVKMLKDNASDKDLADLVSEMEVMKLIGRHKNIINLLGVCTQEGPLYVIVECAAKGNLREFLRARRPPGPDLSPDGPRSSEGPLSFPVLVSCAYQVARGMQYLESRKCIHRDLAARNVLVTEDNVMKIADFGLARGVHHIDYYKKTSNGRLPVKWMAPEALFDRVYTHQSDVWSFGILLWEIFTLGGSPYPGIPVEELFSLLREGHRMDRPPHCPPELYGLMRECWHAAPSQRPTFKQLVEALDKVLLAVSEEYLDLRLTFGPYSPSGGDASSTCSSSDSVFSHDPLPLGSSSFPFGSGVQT
T1 sequence (P35968 whole entry, change not shown): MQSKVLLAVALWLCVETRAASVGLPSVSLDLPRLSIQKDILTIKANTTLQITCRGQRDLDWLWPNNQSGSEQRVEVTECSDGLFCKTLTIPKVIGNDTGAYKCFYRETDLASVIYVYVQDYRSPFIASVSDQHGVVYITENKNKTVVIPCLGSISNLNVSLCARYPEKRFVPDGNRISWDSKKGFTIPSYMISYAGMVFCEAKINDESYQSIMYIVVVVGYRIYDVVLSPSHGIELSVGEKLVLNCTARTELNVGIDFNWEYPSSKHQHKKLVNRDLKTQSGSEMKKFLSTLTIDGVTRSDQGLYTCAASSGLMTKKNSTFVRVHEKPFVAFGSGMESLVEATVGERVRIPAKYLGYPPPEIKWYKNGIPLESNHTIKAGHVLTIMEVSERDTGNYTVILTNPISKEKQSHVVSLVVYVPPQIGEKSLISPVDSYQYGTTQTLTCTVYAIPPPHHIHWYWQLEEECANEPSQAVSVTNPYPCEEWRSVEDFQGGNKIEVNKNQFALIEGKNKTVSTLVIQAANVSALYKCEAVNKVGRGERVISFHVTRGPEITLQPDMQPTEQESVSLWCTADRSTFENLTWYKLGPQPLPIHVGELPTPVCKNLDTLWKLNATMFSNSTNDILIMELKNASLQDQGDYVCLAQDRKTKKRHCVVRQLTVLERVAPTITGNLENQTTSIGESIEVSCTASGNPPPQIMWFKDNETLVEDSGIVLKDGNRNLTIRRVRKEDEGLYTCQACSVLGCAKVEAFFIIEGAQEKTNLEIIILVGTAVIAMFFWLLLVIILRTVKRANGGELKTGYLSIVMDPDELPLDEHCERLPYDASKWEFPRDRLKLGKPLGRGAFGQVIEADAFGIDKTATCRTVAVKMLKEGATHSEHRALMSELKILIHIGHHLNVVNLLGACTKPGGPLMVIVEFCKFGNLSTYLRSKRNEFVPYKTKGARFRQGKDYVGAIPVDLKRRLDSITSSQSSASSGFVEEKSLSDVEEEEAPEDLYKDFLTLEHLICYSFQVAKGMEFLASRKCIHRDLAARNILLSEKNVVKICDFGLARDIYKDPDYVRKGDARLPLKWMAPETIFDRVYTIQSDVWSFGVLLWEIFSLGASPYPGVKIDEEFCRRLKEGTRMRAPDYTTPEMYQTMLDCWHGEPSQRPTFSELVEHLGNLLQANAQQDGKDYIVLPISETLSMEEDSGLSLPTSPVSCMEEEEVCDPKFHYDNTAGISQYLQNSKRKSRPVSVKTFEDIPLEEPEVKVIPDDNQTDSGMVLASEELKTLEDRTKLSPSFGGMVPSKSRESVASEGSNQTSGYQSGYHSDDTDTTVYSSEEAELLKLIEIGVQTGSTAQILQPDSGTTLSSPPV
FGFR1 (h), sequence (P11362 22-822): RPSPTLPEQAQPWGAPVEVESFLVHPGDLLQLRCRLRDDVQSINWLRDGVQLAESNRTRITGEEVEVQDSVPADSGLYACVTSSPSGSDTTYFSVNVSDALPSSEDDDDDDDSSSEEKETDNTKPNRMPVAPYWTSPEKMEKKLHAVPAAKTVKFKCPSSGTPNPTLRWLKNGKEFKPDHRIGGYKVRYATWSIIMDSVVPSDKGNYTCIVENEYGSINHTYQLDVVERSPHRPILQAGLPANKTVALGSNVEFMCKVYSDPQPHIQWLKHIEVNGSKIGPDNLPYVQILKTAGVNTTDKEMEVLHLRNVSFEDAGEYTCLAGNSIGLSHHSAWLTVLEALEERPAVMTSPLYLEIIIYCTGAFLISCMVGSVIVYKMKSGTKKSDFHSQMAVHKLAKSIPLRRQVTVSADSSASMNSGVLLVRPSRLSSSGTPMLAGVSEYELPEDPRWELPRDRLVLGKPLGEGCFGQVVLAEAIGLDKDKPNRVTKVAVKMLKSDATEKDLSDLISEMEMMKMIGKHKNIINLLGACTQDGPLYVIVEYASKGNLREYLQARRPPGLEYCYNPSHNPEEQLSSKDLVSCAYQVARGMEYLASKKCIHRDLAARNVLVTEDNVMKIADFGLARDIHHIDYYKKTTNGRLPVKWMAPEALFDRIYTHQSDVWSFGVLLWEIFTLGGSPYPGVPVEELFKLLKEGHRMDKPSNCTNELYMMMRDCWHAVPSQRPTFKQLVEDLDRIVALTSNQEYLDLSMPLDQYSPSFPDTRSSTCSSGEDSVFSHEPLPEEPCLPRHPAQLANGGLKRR

SMILES | IC50 (FGFR1 (h)) | BAF3-KDR (MIN IL3) pIC50 [1] | BAF3-FGFR4 pIC50 [2] | melting point
COc1cc(OC)cc(N(Cc2nnc(NCCO)o2)c2ccc3ncc(-c4cnn(C)c4)nc3n2)c1 [Compound 282] | 33.1 nM | <5 | <5 | 104 °C
COc1cc(/N=c2\ccc3ncc(-c4cnn(C)c4)nc3n2CC(C)(C)O)c(F)c(OC)c1 [Compound 246] | 0.603 nM | 5.83 | 6.71 | –
COc1cc(OC)cc(N(Cc2c[nH]nn2)c2ccc3ncc(-c4cnn(C)c4)nc3n2)c1 [Compound 251] | 1.32 nM | 5.53 | 6.57 | –
COc1cc(OC)c(F)c(N(CC2CCC(=O)N2)c2ccc3ncc(-c4cnn(CC(C)(C)O)c4)nc3n2)c1 (stereo not shown) [Compound 285] | 2.34 nM | 5.36 | 6.12 | –
COc1cc(OC)c(F)c(N(CC2CCC(=O)N2)c2ccc3ncc(-c4cnn(C5CNC5)c4)nc3n2)c1 (stereo not shown) [Compound 299] | 1.78 nM | <5 | 5.32 | –
COc1cc(OC)c(F)c(/N=c2\ccc3ncc(-c4cnn(C)c4)nc3n2CC2CC2)c1F (single isomer, unassigned) [Compound 267] | 0.977 nM | 6.37 | 7.55 | 195 °C
COc1cc(OC)c(F)c(N(Cc2ncc[nH]2)c2ccc3ncc(-c4cnn(C5COC5)c4)nc3n2)c1 [Compound 253] | 0.603 nM | 6.32 | 7.90 | –
COc1cc(/N=c2\ccc3ncc(-c4cnn(C)c4)nc3n2CC(C)(C)O)cc(OC)c1 [Compound 277] | 0.871 nM | 5.49 | 6.37 | –
COc1cc(OC)c(F)c(N(CC(C)(C)O)c2ccc3ncc(-c4cnn(C)c4)nc3n2)c1F [Compound 278] | 1.62 nM | 5.92 | 7.11 | –
COc1cc(/N=c2\ccc3ncc(-c4cnn(C)c4)nc3n2CC2CCC(=O)N2CCO)c(F)c(OC)c1 (stereo not shown) [Compound 247] | 0.603 nM | 5.63 | 6.87 | –
COc1cc(OC)cc(N(c2ccc3ncc(-c4cnn(C)c4)nc3n2)C(C)c2ncc[nH]2)c1 (stereo not shown) [Compound 280] | 0.851 nM | 6.03 | 7.97 | –
COCC(O)Cn1/c(=N/c2cc(OC)cc(OC)c2F)ccc2ncc(-c3cnn(C)c3)nc21 (single isomer, unassigned) [Compound 60] | 0.741 nM | 6.58 | 7.76 | 114 °C
COc1cc(OC)c(F)c(N(CC(C)(C)O)c2ccc3ncc(-c4cnn(C)c4)nc3n2)c1 [Compound 245] | 3.63 nM | 5.33 | 6.34 | –
COc1cc(OC)c(F)c(N(CC2CC(O)C(=O)N2)c2ccc3ncc(-c4cnn(C)c4)nc3n2)c1 (stereo not shown) [Compound 269] | 1.62 nM | 5.12 | 6.29 | –
COc1cc(OC)c(F)c(N(CC2CC2)c2ccc3ncc(-c4cnn(C)c4)nc3n2)c1F (single isomer, unassigned) [Compound 268] | 0.912 nM | 5.55 | 6.90 | –
COc1cc(OC)cc(N(CCS(C)(=O)=O)c2ccc3ncc(-c4cnn(CCS(C)(=O)=O)c4)nc3n2)c1 [Compound 275] | 5.89 nM | <5 | 5.13 | 172 °C
COc1cc(OC)c(F)c(N(C)c2ccc3ncc(-c4cnn(C)c4)nc3n2)c1F (single isomer, unassigned) [Compound 254] | 0.468 nM | 5.98 | 7.15 | 210 °C
COc1cc(OC)c(F)c(N(CCS(C)(=O)=O)c2ccc3ncc(-c4cnn(CCS(C)(=O)=O)c4)nc3n2)c1 [Compound 266] | 1.45 nM | <5 | 5.78 | 180 °C
COc1cc(/N=c2\ccc3ncc(-c4cnn(C)c4)nc3n2CC2CC(O)C(=O)N2)c(F)c(OC)c1 (stereo not shown) [Compound 270] | 0.776 nM | 5.56 | 6.40 | –
COc1cc(OC)c(F)c(N(Cc2ncc[nH]2)c2ccc3ncc(-c4cnn(CCS(C)(=O)=O)c4)nc3n2)c1 [Compound 264] | 0.55 nM | 5.58 | 7.18 | –
CNCCn1ccnc1CN(c1ccc2ncc(-c3cnn(C)c3)nc2n1)c1cc(OC)cc(OC)c1F [Compound 289] | 4.37 nM | 5.28 | 6.07 | 92 °C

SMILES | IC50 (FGFR1 (h)) | BAF3-KDR (MIN IL3) pIC50 [1] | BAF3-FGFR4 pIC50 [2] | melting point
CNC(=O)c1cc(F)cc(N(Cc2ncc[nH]2)c2ccc3ncc(-c4cnn(C)c4)nc3n2)c1 [Compound 261] | 1.48 nM | 6.01 | 6.77 | 180 °C
COc1cc(OC)cc(N(CC(O)COC(C)C)c2ccc3ncc(-c4cnn(CC(O)COC(C)C)c4)nc3n2)c1 (stereo not shown) [Compound 250] | 4.17 nM | 5.16 | 6.37 | –
COc1cc(OC)c(F)c(N(Cc2noc(C)n2)c2ccc3ncc(-c4cnn(C)c4)nc3n2)c1 [Compound 297] | 0.794 nM | 6.08 | 6.99 | –
COc1cc(OC)c(C)c(N(Cc2ncc[nH]2)c2ccc3ncc(-c4cnn(C)c4)nc3n2)c1 [Compound 273] | 1.15 nM | 6.44 | 7.60 | –
COc1cc(OC)c(F)c(N(CC(=O)N2CCNCC2)c2ccc3ncc(-c4cnn(C)c4)nc3n2)c1 [Compound 262] | 7.24 nM | 5.06 | 5.63 | –
COc1cc(OC)c(F)c(N(c2ccc3ncc(-c4cnn(C)c4)nc3n2)C(C)c2ncc[nH]2)c1 (stereo not shown) [Compound 287] | 0.851 nM | 6.62 | 8.08 | –
COc1cc(OC)cc(N(Cc2ncc[nH]2)c2ccc3ncc(N4CCOCC4)nc3n2)c1 [Compound 293] | 1.62 nM | 5.31 | 6.82 | –
COc1cc(OC)cc(N(CC2CC(O)C(=O)N2)c2ccc3ncc(-c4cnn(C)c4)nc3n2)c1 (stereo not shown) [Compound 271] | 4.57 nM | <5 | 5.80 | –
COc1cc(OC)c(F)c(N(Cc2c[nH]nn2)c2ccc3ncc(-c4cnn(C)c4)nc3n2)c1 [Compound 258] | 0.55 nM | 6.02 | 7.03 | –
COc1cc(OC)c(F)c(N(CC(O)COC(C)C)c2ccc3ncc(-c4cnn(CC(O)COC(C)C)c4)nc3n2)c1 (single isomer, unassigned) [Compound 252] | 1.95 nM | 5.67 | 6.95 | 60 °C
COc1cc(OC)c(F)c(N(Cc2ncc[nH]2)c2ccc3ncc(-c4cnn(CCCN)c4)nc3n2)c1 [Compound 295] | 0.562 nM | 6.45 | 7.61 | –
COc1cc(OC)c(F)c(N(CC(O)c2cnn(C)c2)c2ccc3ncc(-c4cnn(C)c4)nc3n2)c1 (stereo not shown) [Compound 244] | 5.89 nM | 5.03 | 6.11 | –
COc1cc(/N=c2\ccc3ncc(-c4cnn(C)c4)nc3n2CC2CC(O)C(=O)N2)cc(OC)c1 (stereo not shown) [Compound 272] | 0.977 nM | 5.68 | 5.97 | –
COc1cc(/N=c2\ccc3ncc(-c4cnn(CC(C)(C)O)c4)nc3n2CC2CCC(=O)N2)c(F)c(OC)c1 (stereo not shown) [Compound 286] | ~1.55 nM | 6.23 | 6.69 | –
COc1cc(OC)c(F)c(/N=c2\ccc3ncc(-c4cnn(C)c4)nc3n2C)c1F (single isomer, unassigned) [Compound 255] | 0.214 nM | 6.22 | 7.34 | 199 °C
COc1cc(OC)cc(N(CCNC2COC2)c2ccc3ncc(-c4cnn(C)c4)nc3n2)c1 [Compound 290] | 3.55 nM | 5.81 | 6.32 | –
COc1cc(OC)c(F)c(N(CC(=O)NC(C)C)c2ccc3ncc(-c4cnn(C)c4)nc3n2)c1 [Compound 249] | 3.89 nM | 5.09 | 6.00 | –
COc1cc(OC)c(F)c(N(Cc2ncc[nH]2)c2ccc3ncc(N4C[C@@H](C)N[C@@H](C)C4)nc3n2)c1 [Compound 259] | 2.09 nM | 5.13 | 6.19 | –
COc1cc(OC)c(F)c(N(Cc2ncc[nH]2)c2ccc3ncc(N4CCOCC4)nc3n2)c1 [Compound 291] | 0.871 nM | 5.68 | 7.08 | –
COc1cc(OC)cc(N(CC(C)(C)O)c2ccc3ncc(-c4cnn(C)c4)nc3n2)c1 [Compound 276] | 14.5 nM | 5.02 | 5.82 | –
CCn1/c(=N/c2c(F)c(OC)cc(OC)c2F)ccc2ncc(-c3cnn(C)c3)nc21 [Compound 257] | 0.331 nM | 6.80 | 7.98 | –
